From ChEMBL document CHEMBL1137071, “Phenyl thiazolyl urea and carbamate derivatives as new inhibitors of bacterial cell-wall biosynthesis” (Bioorg Med Chem Lett, 2004)
In brackets after ≈: the same amount, converted by molar mass.

How the values were obtained:
Assay type in all cases: functional
Enterococcus faecalis [1] = assay: Antimicrobial activity against Enterococcus faecalis GC 2242 (VRE); Not active; 16->128
Escherichia coli [2] = assay: Antimicrobial activity against Escherichia coli GC 4559; Not active; 16->128
Escherichia coli [3] = assay: Antimicrobial activity against Escherichia coli GC 4560; Not active; 16->128
Enterococcus faecalis [4] = assay: Antimicrobial activity against Enterococcus faecalis GC 4555 (ATCC); Not active; 16->128
[5] = Inhibitory activity against MurB
Staphylococcus aureus [6] = assay: Antimicrobial activity against Staphylococcus aureus GC 1131 (MRSA); Not active; 16->128
Staphylococcus [7] = assay: Antimicrobial activity against MSCNS (methicillin-susceptible coagulase-negative staphylococci) GC 646; Not active; 16->128
Staphylococcus aureus [8] = assay: Antimicrobial activity against Staphylococcus aureus GC 2216 (ATCC); Not active; 16->128
Staphylococcus aureus [9] = assay: Antimicrobial activity against Staphylococcus aureus GC 4543 (MSSA); Not active; 16->128
Streptococcus pneumoniae [10] = assay: Antimicrobial activity against Streptococcus pneumoniae GC1894 (PRSP) in the presence of 4% bovine serum albumin; Not active; 16->128
Streptococcus pneumoniae [11] = assay: Antimicrobial activity against Streptococcus pneumoniae GC1894 (PRSP); Not active; 16->128
Enterococcus faecalis [12] = assay: Antimicrobial activity against Enterococcus faecalis GC 2242 (VRE)
Escherichia coli [13] = assay: Antimicrobial activity against Escherichia coli GC 4559
Escherichia coli [14] = assay: Antimicrobial activity against Escherichia coli GC 4560
Enterococcus faecalis [15] = assay: Antimicrobial activity against Enterococcus faecalis GC 4555 (ATCC)
[16] = Inhibitory activity against MurA from Escherichia coli
[17] = Inhibitory activity against MurB from Escherichia coli
[18] = Inhibitory activity against MurB from Staphylococcus aureus
[19] = Antimicrobial activity against MSCNS (methicillin-susceptible coagulase-negative staphylococci) GC 646; conditions: Staphylococcus
Staphylococcus aureus [20] = assay: Antimicrobial activity against Staphylococcus aureus GC 1131 (MRSA)
Staphylococcus aureus [21] = assay: Antimicrobial activity against Staphylococcus aureus GC 2216 (ATCC)
Staphylococcus aureus [22] = assay: Antimicrobial activity against Staphylococcus aureus GC 4543 (MSSA)
Streptococcus pneumoniae [23] = assay: Antimicrobial activity against Streptococcus pneumoniae GC1894 (PRSP) in the presence of 4% bovine serum albumin
Streptococcus pneumoniae [24] = assay: Antimicrobial activity against Streptococcus pneumoniae GC1894 (PRSP)
Enterococcus faecalis [25] = assay: Antimicrobial activity against Enterococcus faecalis GC 2242 (VRE); Not active; 32-128
Escherichia coli [26] = assay: Antimicrobial activity against Escherichia coli GC 4559; Not active; 32-128
Escherichia coli [27] = assay: Antimicrobial activity against Escherichia coli GC 4560; Not active; 32-128
Enterococcus faecalis [28] = assay: Antimicrobial activity against Enterococcus faecalis GC 4555 (ATCC); Not active; 32-128
Staphylococcus aureus [29] = assay: Antimicrobial activity against Staphylococcus aureus GC 1131 (MRSA); Not active; 32-128
Staphylococcus [30] = assay: Antimicrobial activity against MSCNS (methicillin-susceptible coagulase-negative staphylococci) GC 646; Not active; 32-128
Staphylococcus aureus [31] = assay: Antimicrobial activity against Staphylococcus aureus GC 2216 (ATCC); Not active; 32-128
Staphylococcus aureus [32] = assay: Antimicrobial activity against Staphylococcus aureus GC 4543 (MSSA); Not active; 32-128
Streptococcus pneumoniae [33] = assay: Antimicrobial activity against Streptococcus pneumoniae GC1894 (PRSP) in the presence of 4% bovine serum albumin; Not active; 32-128
Streptococcus pneumoniae [34] = assay: Antimicrobial activity against Streptococcus pneumoniae GC1894 (PRSP); Not active; 32-128
Enterococcus faecalis [35] = assay: Antimicrobial activity against Enterococcus faecalis GC 2242 (VRE); Not active; 0.5-128
Escherichia coli [36] = assay: Antimicrobial activity against Escherichia coli GC 4560; Not active; 0.5-128
Enterococcus faecalis [37] = assay: Antimicrobial activity against Enterococcus faecalis GC 4555 (ATCC); Not active; 0.5-128
Staphylococcus aureus [38] = assay: Antimicrobial activity against Staphylococcus aureus GC 1131 (MRSA); Not active; 0.5-128
Staphylococcus aureus [39] = assay: Antimicrobial activity against Staphylococcus aureus GC 2216 (ATCC); Not active; 0.5-128
Staphylococcus [40] = assay: Antimicrobial activity against MSCNS (methicillin-susceptible coagulase-negative staphylococci) GC 646; Not active; 0.5-128
Staphylococcus aureus [41] = assay: Antimicrobial activity against Staphylococcus aureus GC 4543 (MSSA); Not active; 0.5-128
Streptococcus pneumoniae [42] = assay: Antimicrobial activity against Streptococcus pneumoniae GC1894 (PRSP) in the presence of 4% bovine serum albumin; Not active; 0.5-128
Streptococcus pneumoniae [43] = assay: Antimicrobial activity against Streptococcus pneumoniae GC1894 (PRSP); Not active; 0.5-128
Escherichia coli [44] = assay: Antimicrobial activity against Escherichia coli GC 4559; Not active

| SMILES | IC50 [5] [µg/mL] | MIC (Enterococcus faecalis [12]) [µg/mL] | MIC (Escherichia coli [13]) [µg/mL] | MIC (Escherichia coli [14]) [µg/mL] | MIC (Enterococcus faecalis [15]) [µg/mL] | IC50 [16] [µg/mL] | IC50 [17] [µg/mL] | IC50 [18] [µg/mL] | MIC [19] [µg/mL] | MIC (Staphylococcus aureus [20]) [µg/mL] | MIC (Staphylococcus aureus [21]) [µg/mL] | MIC (Staphylococcus aureus [22]) [µg/mL] | MIC (Streptococcus pneumoniae [23]) [µg/mL] | MIC (Streptococcus pneumoniae [24]) [µg/mL] | other results |
| --- | --- | --- | --- | --- | --- | --- | --- | --- | --- | --- | --- | --- | --- | --- | --- |
| O=C(Nc1ccc(Cl)c(Cl)c1)Nc1nncs1 | > 25 |  |  |  |  |  |  |  |  |  |  |  |  |  | MIC (Enterococcus faecalis [1]): > 128 µg/mL; MIC (Escherichia coli [2]): > 128 µg/mL; MIC (Escherichia coli [3]): > 128 µg/mL; MIC (Enterococcus faecalis [4]): > 128 µg/mL; MIC (Staphylococcus aureus [6]): > 128 µg/mL; MIC (Staphylococcus [7]): > 128 µg/mL; MIC (Staphylococcus aureus [8]): > 128 µg/mL; MIC (Staphylococcus aureus [9]): > 128 µg/mL; MIC (Streptococcus pneumoniae [10]): > 128 µg/mL; MIC (Streptococcus pneumoniae [11]): > 128 µg/mL |
| N#Cc1cnc(NC(=O)NCc2ccc(Cl)c(Cl)c2)s1 |  | 64 (≈ 196 µM) | > 128 | > 128 | > 128 | > 25 | > 25 | 24 (≈ 73.4 µM) | > 128 | > 128 | > 128 | > 128 | 128 | 64 (≈ 196 µM) |  |
| CC(C)(C)c1nc(NC(=O)NCc2ccc(Cl)c(Cl)c2)sc1C#N |  | 0.5 (≈ 1.3 µM) | > 128 | 2 (≈ 5.22 µM) | 1 (≈ 2.61 µM) | 20.8 (≈ 54.3 µM) | > 25 | 11 (≈ 28.7 µM) | 1 (≈ 2.61 µM) | 1 (≈ 2.61 µM) | 0.25 (≈ 0.652 µM) | 0.5 (≈ 1.3 µM) | 128 | < 0.12 |  |
| CC(C)(C)c1nc(NC(=O)Nc2cccc(C#N)c2)sc1C#N |  | 8 (≈ 24.6 µM) | > 128 | > 128 | 16 (≈ 49.2 µM) | > 25 | > 25 | > 25 | > 128 | > 128 | > 128 | > 128 | > 128 | 8 (≈ 24.6 µM) |  |
| O=C(Nc1ccc(Cl)c(Cl)c1)Nc1cccc2cccnc12 | > 25 |  |  |  |  |  |  |  |  |  |  |  |  |  | MIC (Enterococcus faecalis [25]): > 128 µg/mL; MIC (Escherichia coli [26]): > 128 µg/mL; MIC (Escherichia coli [27]): > 128 µg/mL; MIC (Enterococcus faecalis [28]): > 128 µg/mL; MIC (Staphylococcus aureus [29]): > 128 µg/mL; MIC (Staphylococcus [30]): > 128 µg/mL; MIC (Staphylococcus aureus [31]): > 128 µg/mL; MIC (Staphylococcus aureus [32]): > 128 µg/mL; MIC (Streptococcus pneumoniae [33]): > 128 µg/mL; MIC (Streptococcus pneumoniae [34]): > 128 µg/mL |
| COC(=O)c1sccc1NC(=O)Nc1ccc(Cl)c(Cl)c1 | 18 (≈ 52.1 µM) |  |  |  |  |  |  |  |  |  |  |  |  |  | MIC (Enterococcus faecalis [35]): > 128 µg/mL; MIC (Escherichia coli [36]): > 128 µg/mL; MIC (Enterococcus faecalis [37]): > 128 µg/mL; MIC (Staphylococcus aureus [38]): > 128 µg/mL; MIC (Staphylococcus aureus [39]): > 128 µg/mL; MIC (Staphylococcus [40]): > 128 µg/mL; MIC (Staphylococcus aureus [41]): > 128 µg/mL; MIC (Streptococcus pneumoniae [42]): > 128 µg/mL; MIC (Streptococcus pneumoniae [43]): > 128 µg/mL; MIC (Escherichia coli [44]): > 128 µg/mL |
| CC(C)(C)c1nc(NC(=O)Nc2cccnc2)sc1C#N |  | > 128 | > 128 | > 128 | > 128 | 25 (≈ 83 µM) | 25 (≈ 83 µM) | 25 (≈ 83 µM) | > 128 | > 128 | > 128 | > 128 | > 128 | > 128 |  |
